According to ChEMBL document CHEMBL4414631 (J Med Chem, 2019):

What was measured:
[1] = target: T1, Phosphatidylinositol 4,5-bisphosphate 3-kinase catalytic subunit delta isoform (Homo sapiens, UniProt O00329)
T1 sequence (O00329 whole entry): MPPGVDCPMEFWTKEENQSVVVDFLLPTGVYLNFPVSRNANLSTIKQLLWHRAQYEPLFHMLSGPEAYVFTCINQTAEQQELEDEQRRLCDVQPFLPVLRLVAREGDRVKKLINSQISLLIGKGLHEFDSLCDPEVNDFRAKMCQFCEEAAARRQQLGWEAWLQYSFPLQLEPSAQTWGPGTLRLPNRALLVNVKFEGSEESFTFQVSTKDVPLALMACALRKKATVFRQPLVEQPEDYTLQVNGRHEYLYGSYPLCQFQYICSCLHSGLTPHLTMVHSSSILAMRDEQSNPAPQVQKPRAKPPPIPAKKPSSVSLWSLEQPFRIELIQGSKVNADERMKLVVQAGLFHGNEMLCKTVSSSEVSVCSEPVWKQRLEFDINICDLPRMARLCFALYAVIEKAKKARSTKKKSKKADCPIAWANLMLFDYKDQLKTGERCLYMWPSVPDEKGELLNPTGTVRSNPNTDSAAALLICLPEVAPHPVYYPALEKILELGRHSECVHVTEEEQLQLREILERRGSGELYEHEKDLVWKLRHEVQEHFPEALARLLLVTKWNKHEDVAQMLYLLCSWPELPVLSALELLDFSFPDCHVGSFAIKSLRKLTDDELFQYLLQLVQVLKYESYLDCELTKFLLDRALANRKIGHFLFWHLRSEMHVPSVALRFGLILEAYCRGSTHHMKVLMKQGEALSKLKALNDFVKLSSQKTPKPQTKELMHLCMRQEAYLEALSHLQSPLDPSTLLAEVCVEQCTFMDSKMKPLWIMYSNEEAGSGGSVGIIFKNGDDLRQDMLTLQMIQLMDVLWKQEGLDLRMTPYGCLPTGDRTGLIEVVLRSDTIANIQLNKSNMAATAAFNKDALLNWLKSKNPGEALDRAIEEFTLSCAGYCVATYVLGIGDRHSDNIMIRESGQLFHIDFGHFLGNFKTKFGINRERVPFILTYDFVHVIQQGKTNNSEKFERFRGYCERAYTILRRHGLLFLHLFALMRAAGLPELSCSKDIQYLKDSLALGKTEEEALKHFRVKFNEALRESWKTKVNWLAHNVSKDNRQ
Description: Inhibition of PI3Kdelta (unknown origin) using biotin-PIP3 as substrate preincubated for 15 mins followed by substrate addition and measured after 60 mins by fluorescence polarization assay

[2] = target: Phosphatidylinositol 4,5-bisphosphate 3-kinase catalytic subunit beta isoform (Homo sapiens, UniProt P42338); experiment: Inhibition of PI3Kbeta (unknown origin) using biotin-PIP3 as substrate preincubated for 15 mins followed by substrate addition and measured after 60 mins by fluorescence polarization assay
[3] = target: Phosphatidylinositol 4,5-bisphosphate 3-kinase catalytic subunit alpha isoform (Homo sapiens, UniProt P42336)
Description: Inhibition of PI3Kalpha (unknown origin) using biotin-PIP3 as substrate preincubated for 15 mins followed by substrate addition and measured after 60 mins by fluorescence polarization assay

[4] = Lipophilicity, logD of compound at pH 7.4 by HPLC-MS analysis; conditions: buffer
[5] = target: Phosphatidylinositol 4,5-bisphosphate 3-kinase catalytic subunit gamma isoform (Homo sapiens, UniProt P48736)
Phosphatidylinositol 4,5-bisphosphate 3-kinase catalytic subunit gamma isoform, sequence (P48736 whole entry, canonical isoform): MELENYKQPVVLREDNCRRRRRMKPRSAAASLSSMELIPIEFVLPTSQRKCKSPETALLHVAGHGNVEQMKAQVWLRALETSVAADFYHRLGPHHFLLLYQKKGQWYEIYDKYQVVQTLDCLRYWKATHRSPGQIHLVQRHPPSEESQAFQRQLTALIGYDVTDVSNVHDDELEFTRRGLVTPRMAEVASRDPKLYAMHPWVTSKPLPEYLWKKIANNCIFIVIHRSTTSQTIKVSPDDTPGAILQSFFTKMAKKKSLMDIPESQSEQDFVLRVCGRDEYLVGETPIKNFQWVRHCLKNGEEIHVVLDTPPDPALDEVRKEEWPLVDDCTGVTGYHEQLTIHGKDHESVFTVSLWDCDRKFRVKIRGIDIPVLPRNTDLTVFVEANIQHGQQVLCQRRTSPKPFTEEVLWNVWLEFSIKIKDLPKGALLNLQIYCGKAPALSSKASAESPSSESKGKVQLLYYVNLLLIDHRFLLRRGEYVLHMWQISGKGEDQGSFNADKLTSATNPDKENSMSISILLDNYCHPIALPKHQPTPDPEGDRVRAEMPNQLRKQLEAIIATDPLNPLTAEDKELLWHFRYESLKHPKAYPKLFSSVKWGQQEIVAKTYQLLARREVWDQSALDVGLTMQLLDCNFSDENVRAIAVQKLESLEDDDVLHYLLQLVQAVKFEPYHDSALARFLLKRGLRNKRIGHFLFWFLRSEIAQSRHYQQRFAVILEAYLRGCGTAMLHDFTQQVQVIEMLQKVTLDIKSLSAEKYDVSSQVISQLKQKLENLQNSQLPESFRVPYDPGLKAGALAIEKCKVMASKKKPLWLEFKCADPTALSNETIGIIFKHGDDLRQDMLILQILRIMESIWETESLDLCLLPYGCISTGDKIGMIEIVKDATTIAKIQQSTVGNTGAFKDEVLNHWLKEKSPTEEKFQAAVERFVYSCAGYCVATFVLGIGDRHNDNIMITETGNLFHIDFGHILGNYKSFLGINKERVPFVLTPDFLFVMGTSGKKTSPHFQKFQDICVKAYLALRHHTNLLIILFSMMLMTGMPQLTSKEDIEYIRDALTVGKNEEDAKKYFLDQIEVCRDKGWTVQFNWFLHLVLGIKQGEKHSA
Description: Inhibition of PI3Kgamma (unknown origin) using biotin-PIP3 as substrate preincubated for 15 mins followed by substrate addition and measured after 60 mins by fluorescence polarization assay

Phosphatidylinositol 4,5-bisphosphate 3-kinase catalytic subunit beta isoform, sequence (P42338 whole entry, canonical isoform): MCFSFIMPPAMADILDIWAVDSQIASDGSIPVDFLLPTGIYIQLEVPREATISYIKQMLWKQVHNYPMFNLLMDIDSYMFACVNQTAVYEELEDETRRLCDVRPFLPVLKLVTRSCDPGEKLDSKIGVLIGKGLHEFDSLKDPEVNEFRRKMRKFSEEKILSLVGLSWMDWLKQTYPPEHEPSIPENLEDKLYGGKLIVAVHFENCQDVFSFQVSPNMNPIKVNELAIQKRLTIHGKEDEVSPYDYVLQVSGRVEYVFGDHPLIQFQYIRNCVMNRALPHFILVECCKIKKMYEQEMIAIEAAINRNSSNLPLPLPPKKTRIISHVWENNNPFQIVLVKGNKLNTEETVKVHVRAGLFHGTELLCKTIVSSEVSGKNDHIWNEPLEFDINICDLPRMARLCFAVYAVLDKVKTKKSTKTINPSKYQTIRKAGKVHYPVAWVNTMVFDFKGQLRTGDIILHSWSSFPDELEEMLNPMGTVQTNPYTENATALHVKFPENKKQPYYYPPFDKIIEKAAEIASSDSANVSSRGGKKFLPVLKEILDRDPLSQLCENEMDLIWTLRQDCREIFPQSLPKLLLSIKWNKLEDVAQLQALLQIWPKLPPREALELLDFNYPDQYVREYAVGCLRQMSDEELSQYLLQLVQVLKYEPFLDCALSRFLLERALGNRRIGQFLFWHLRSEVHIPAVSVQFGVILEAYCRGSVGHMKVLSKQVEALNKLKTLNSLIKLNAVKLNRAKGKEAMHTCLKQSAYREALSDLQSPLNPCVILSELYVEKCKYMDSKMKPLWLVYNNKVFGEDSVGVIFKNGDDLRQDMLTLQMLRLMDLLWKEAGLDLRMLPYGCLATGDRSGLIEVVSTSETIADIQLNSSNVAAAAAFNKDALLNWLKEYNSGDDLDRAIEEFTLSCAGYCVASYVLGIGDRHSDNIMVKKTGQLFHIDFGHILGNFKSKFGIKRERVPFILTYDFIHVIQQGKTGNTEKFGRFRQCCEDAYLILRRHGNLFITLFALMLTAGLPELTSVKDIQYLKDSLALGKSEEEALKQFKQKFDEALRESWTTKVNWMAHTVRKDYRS
Phosphatidylinositol 4,5-bisphosphate 3-kinase catalytic subunit alpha isoform, sequence (P42336 whole entry, canonical isoform): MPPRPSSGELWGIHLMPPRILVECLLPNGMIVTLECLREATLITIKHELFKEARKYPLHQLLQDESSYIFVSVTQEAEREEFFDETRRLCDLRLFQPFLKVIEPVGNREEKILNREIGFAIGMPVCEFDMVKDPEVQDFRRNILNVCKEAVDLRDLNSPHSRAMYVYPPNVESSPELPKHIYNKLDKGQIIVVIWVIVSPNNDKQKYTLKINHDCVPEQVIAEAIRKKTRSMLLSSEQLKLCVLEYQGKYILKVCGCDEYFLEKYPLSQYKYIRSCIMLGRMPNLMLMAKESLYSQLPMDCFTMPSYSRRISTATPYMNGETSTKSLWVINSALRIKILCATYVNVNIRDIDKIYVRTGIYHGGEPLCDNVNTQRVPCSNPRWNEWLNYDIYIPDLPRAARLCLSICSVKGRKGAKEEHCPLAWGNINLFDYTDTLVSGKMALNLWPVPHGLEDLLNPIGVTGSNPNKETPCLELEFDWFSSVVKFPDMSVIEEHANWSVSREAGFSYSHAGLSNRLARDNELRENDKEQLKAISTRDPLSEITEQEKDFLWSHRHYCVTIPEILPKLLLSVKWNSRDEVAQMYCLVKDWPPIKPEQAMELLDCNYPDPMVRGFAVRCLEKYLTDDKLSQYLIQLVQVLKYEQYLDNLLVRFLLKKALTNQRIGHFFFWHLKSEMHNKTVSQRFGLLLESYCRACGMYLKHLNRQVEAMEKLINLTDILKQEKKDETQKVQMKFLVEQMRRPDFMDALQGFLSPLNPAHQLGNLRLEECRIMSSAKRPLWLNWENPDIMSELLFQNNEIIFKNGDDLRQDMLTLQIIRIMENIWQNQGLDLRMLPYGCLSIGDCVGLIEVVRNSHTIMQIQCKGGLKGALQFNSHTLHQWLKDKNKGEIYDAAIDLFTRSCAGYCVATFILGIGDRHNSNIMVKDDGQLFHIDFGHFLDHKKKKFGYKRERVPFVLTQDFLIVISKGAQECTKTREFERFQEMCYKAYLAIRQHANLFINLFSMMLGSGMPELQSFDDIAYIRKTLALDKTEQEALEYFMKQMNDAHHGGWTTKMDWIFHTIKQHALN

Structure (SMILES) | IC50 [1] | IC50 [2] | IC50 [3] | logD [4] | IC50 [5]
CNC(=O)NC1CCCN(Cc2cc3nc(-c4cnc(N)nc4)nc(N4CCOCC4)c3s2)C1 (racemic) | 126 nM | 2000 nM | 79.4 nM | 2.6 | 158 nM
CN(C1CCN(Cc2cc3nc(-c4cnc(N)nc4)nc(N4CCOCC4)c3s2)C1)S(C)(=O)=O (racemic) | 6.31 nM | 251 nM | 7.94 nM | 3.1 | 12.6 nM
CC(=O)N(C)C1CCN(Cc2cc3nc(-c4cnc(N)nc4)nc(N4CCOCC4)c3s2)CC1 | 6.31 nM | 398 nM | 39.8 nM | 2.8 | 39.8 nM
CS(=O)(=O)NC1CCN(Cc2cc3nc(-c4cccc5[nH]ncc45)nc(N4CCOCC4)c3s2)CC1 | 39.8 nM | 1260 nM | 126 nM | 3.8 | 794 nM
CS(=O)(=O)NC1CCN(Cc2cc3nc(-c4cccc5[nH]ccc45)nc(N4CCOCC4)c3s2)C1 (racemic) | 25.1 nM | 631 nM | 1580 nM | 4.3 | 1580 nM
CC(=O)N(C)C1CCN(Cc2cc3nc(-c4cnc(N)nc4)nc(N4CCOCC4)c3s2)C1 (racemic) | 12.6 nM | 631 nM | 20 nM | 2.8 | 39.8 nM
CNC(=O)NC1CCN(Cc2cc3nc(-c4cccc5[nH]ncc45)nc(N4CCOCC4)c3s2)CC1 | 100 nM | 3160 nM | 251 nM | 3.1 | –
CN(C1CCN(Cc2cc3nc(-c4cccc5[nH]ncc45)nc(N4CCOCC4)c3s2)C1)S(C)(=O)=O (racemic) | 25.1 nM | 1580 nM | 126 nM | 4.6 | 398 nM
CC(=O)N[C@H]1CCN(Cc2cc3nc(-c4cnc(N)nc4)nc(N4CCOCC4)c3s2)C1 | 316 nM | 3980 nM | 200 nM | 1.8 | 251 nM
COCC(=O)NC1CCN(Cc2cc3nc(-c4cccc5[nH]ncc45)nc(N4CCOCC4)c3s2)CC1 | 126 nM | 3980 nM | 398 nM | 3.9 | –
CC(=O)NC1CCN(Cc2cc3nc(-c4cccc5[nH]ccc45)nc(N4CCOCC4)c3s2)CC1 | 79.4 nM | – | 3160 nM | 4 | –
COCC(=O)NC1CCN(Cc2cc3nc(-c4cccc5[nH]ncc45)nc(N4CCOCC4)c3s2)C1 (racemic) | 200 nM | 3160 nM | 316 nM | 3.4 | 794 nM
CC(=O)N[C@@H]1CCN(Cc2cc3nc(-c4cnc(N)nc4)nc(N4CCOCC4)c3s2)C1 | 158 nM | 2000 nM | 126 nM | 1.8 | 126 nM
CC(=O)N(C)C1CCCN(Cc2cc3nc(-c4cccc5[nH]ncc45)nc(N4CCOCC4)c3s2)C1 (racemic) | 39.8 nM | 2000 nM | 251 nM | 4.5 | 501 nM
COCC(=O)NC1CCN(Cc2cc3nc(-c4cnc(N)nc4)nc(N4CCOCC4)c3s2)CC1 | 39.8 nM | 794 nM | 50.1 nM | 2.3 | 63.1 nM
CNC(=O)NC1CCN(Cc2cc3nc(-c4cccc5[nH]ccc45)nc(N4CCOCC4)c3s2)CC1 | 158 nM | 2510 nM | 3980 nM | 3.6 | –
CC(=O)N(C)[C@H]1CCN(Cc2cc3nc(-c4cnc(N)nc4)nc(N4CCOCC4)c3s2)C1 | 12.6 nM | 631 nM | 20 nM | 2.5 | 15.8 nM
CC(=O)NC1CCCN(Cc2cc3nc(-c4cnc(N)nc4)nc(N4CCOCC4)c3s2)C1 (racemic) | 79.4 nM | 2000 nM | 126 nM | 2.5 | 158 nM
CNC(=O)NC1CCCN(Cc2cc3nc(-c4cccc5[nH]ccc45)nc(N4CCOCC4)c3s2)C1 (racemic) | 126 nM | 2510 nM | 3980 nM | 4.1 | 2510 nM
CC(=O)N(C)C1CCCN(Cc2cc3nc(-c4cnc(N)nc4)nc(N4CCOCC4)c3s2)C1 (racemic) | 15.8 nM | 2000 nM | 63.1 nM | 3.1 | 100 nM
COCC(=O)NC1CCN(Cc2cc3nc(-c4cnc(N)nc4)nc(N4CCOCC4)c3s2)C1 (racemic) | 79.4 nM | 501 nM | 39.8 nM | 2.3 | 50.1 nM
CNC(=O)N(C)C1CCCN(Cc2cc3nc(-c4cnc(N)nc4)nc(N4CCOCC4)c3s2)C1 (racemic) | 79.4 nM | 2000 nM | 79.4 nM | 2.9 | 200 nM
CS(=O)(=O)NC1CCN(Cc2cc3nc(-c4cccc5[nH]ncc45)nc(N4CCOCC4)c3s2)C1 (racemic) | 63.1 nM | 3160 nM | 251 nM | 3.5 | 1260 nM
COCC(=O)NC1CCN(Cc2cc3nc(-c4cccc5[nH]ccc45)nc(N4CCOCC4)c3s2)CC1 | 79.4 nM | – | – | 4.3 | –
COCC(=O)N(C)C1CCN(Cc2cc3nc(-c4cccc5[nH]ncc45)nc(N4CCOCC4)c3s2)CC1 | 25.1 nM | 1580 nM | 501 nM | 3.8 | –
CNC(=O)N(C)C1CCN(Cc2cc3nc(-c4cccc5[nH]ncc45)nc(N4CCOCC4)c3s2)C1 (racemic) | 63.1 nM | 1580 nM | 794 nM | – | 1580 nM

More lines, in order of falling IC50 [1], values ahead:

IC50 [1] | IC50 [2] | IC50 [3] | logD [4] | IC50 [5] | Structure (SMILES)
316 nM | 10000 nM | 501 nM | 3 | 631 nM | COCC(=O)NC1CCCN(Cc2cc3nc(-c4cnc(N)nc4)nc(N4CCOCC4)c3s2)C1 (racemic)
200 nM | 6310 nM | 631 nM | 3.2 | – | CC(=O)NC1CCN(Cc2cc3nc(-c4cccc5[nH]ncc45)nc(N4CCOCC4)c3s2)CC1
126 nM | 2000 nM | 3160 nM | 3.4 | 3980 nM | CNC(=O)NC1CCN(Cc2cc3nc(-c4cccc5[nH]ccc45)nc(N4CCOCC4)c3s2)C1 (racemic)
100 nM | 6310 nM | 398 nM | 4.5 | 2510 nM | COCC(=O)NC1CCCN(Cc2cc3nc(-c4cccc5[nH]ncc45)nc(N4CCOCC4)c3s2)C1 (racemic)
100 nM | 7940 nM | 316 nM | 3.6 | 3160 nM | CNC(=O)NC1CCCN(Cc2cc3nc(-c4cccc5[nH]ncc45)nc(N4CCOCC4)c3s2)C1 (racemic)
79.4 nM | 5010 nM | 631 nM | 3.8 | 1000 nM | COCC(=O)N(C)C1CCN(Cc2cc3nc(-c4cccc5[nH]ncc45)nc(N4CCOCC4)c3s2)C1 (racemic)
63.1 nM | 1260 nM | 3160 nM | 3.7 | 2000 nM | CC(=O)NC1CCN(Cc2cc3nc(-c4cccc5[nH]ccc45)nc(N4CCOCC4)c3s2)C1 (racemic)
39.8 nM | 5010 nM | 316 nM | 4.5 | 794 nM | CN(C1CCN(Cc2cc3nc(-c4cccc5[nH]ncc45)nc(N4CCOCC4)c3s2)CC1)S(C)(=O)=O
31.6 nM | 2000 nM | 501 nM | 4.1 | 1000 nM | CC(=O)N(C)C1CCN(Cc2cc3nc(-c4cccc5[nH]ncc45)nc(N4CCOCC4)c3s2)CC1
20 nM | 1000 nM | 200 nM | 3.6 | 1000 nM | CC(=O)N(C)C1CCN(Cc2cc3nc(-c4cccc5[nH]ncc45)nc(N4CCOCC4)c3s2)C1 (racemic)
15.8 nM | 316 nM | 20 nM | 3.1 | 39.8 nM | CS(=O)(=O)NC1CCCN(Cc2cc3nc(-c4cnc(N)nc4)nc(N4CCOCC4)c3s2)C1 (racemic)
15.8 nM | 631 nM | 126 nM | 2.7 | 126 nM | COCC(=O)N(C)C1CCN(Cc2cc3nc(-c4cnc(N)nc4)nc(N4CCOCC4)c3s2)CC1
